According to ChEMBL document CHEMBL6109156, “Discovery of Dual PD-L1/HDAC3 Inhibitors for Tumor Immunotherapy” (J Med Chem, 2025):
Active and inactive are the calls of the source. No cut-off for these calls is given here.

Assays:
[1] = system: B16-F10; assay: Induction of apoptosis in mouse B16-F10 cells assessed as late apoptotic cells at 4 uM incubated for 48 hrs by Annexin V-FITC/PI staining based flow cytometry analysis (reference value: 5.02 %); format: functional
[2] = system: B16-F10; assay: Induction of apoptosis in mouse B16-F10 cells assessed as early apoptotic cells at 2 uM incubated for 48 hrs by Annexin V-FITC/PI staining based flow cytometry analysis (reference value: 0.45 %); format: functional
[3] = target: Histone deacetylase 3 (Homo sapiens, UniProt O15379); assay: Inhibition of human recombinant HDAC3 using Ac-Leu-Gly-Lys (Ac)-AMC as substrate preincubated for 10 mins followed by substrate addition and measured after 45 mins by TECAN microtiter plate reader analysis
[4] = target: T1, Histone deacetylase 3 (Mus musculus) (UniProt O88895); assay: Inhibition of HDAC3 in mouse B16-F10 cells assessed as upregulation of Ac-H3 level at 3 uM incubated for 24 hrs by Western blotting analysis; format: cell-based
T1 sequence (whole entry): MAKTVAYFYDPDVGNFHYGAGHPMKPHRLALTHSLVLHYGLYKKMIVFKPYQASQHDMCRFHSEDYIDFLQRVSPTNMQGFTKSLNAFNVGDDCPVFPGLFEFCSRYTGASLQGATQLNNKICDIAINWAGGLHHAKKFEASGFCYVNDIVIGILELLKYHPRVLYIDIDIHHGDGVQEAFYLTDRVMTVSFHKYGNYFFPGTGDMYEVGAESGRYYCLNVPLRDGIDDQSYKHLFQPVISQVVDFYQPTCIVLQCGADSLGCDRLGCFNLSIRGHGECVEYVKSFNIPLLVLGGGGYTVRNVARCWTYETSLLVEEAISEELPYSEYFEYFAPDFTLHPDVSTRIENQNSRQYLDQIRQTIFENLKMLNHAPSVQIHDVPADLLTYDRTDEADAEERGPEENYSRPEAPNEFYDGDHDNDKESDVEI

[5] = target: T1, Histone deacetylase 3 (Mus musculus); assay: Inhibition of HDAC3 in mouse B16-F10 cells assessed as upregulation of Ac-H3 level incubated for 24 hrs by Western blotting analysis; format: cell-based; conditions: dose 1-8 µM
[6] = target: Programmed cell death protein 1/Programmed cell death 1 ligand 1 (Homo sapiens) (UniProt Q15116+Q9NZQ7); assay: Inhibition of PD-1/PD-L1 (unknown origin) interaction assessed as inhibition rate at 0.1 uM by HTRF assay relative to control; format: protein-complex assay
[7] = system: B16-F10; assay: Immunomodulatory activity in mouse B16-F10 cells implanted in C57BL/6J mouse assessed as percentage of CD3 positive CD8 positive cells in tumor at 40 mg/kg, ip administered once daily for 9 days by flow cytometric analysis (reference value: 0.44 %); format: functional; conditions: time 9 day
[8] = system: B16-F10; assay: Immunomodulatory activity in mouse B16-F10 cells implanted in C57BL/6J mouse assessed as percentage of CD3 positive CD4 positive cells in tumor at 20 mg/kg, ip administered once daily for 9 days by flow cytometric analysis (reference value: 0.20 %); format: functional; conditions: time 9 day
[9] = system: B16-F10; assay: Induction of cell cycle arrest in mouse B16-F10 cells assessed as accumulation of cells at G2/M phase at 4 uM incubated for 48 hrs by PI staining based flow cytometry analysis (reference value: 5.87%); format: functional
[10] = system: B16-F10; assay: Induction of apoptosis in mouse B16-F10 cells assessed as necrotic cells at 10 uM incubated for 48 hrs by Annexin V-FITC/PI staining based flow cytometry analysis (reference value: 2.24%); format: functional
[11] = system: B16-F10; assay: Antiproliferative activity against mouse B16-F10 cells assessed as cell growth inhibition incubated for 48 hrs by MTT assay; format: functional, cell-based; conditions: B16-F10, 48 h
[12] = system: B16-F10; assay: Induction of apoptosis in mouse B16-F10 cells assessed as necrotic cells at 4 uM incubated for 48 hrs by Annexin V-FITC/PI staining based flow cytometry analysis (reference value: 2.24%); format: functional
[13] = system: MDA-MB-231; assay: Antiproliferative activity against human MDA-MB-231 cells assessed as cell growth inhibition incubated for 48 hrs by MTT assay; format: functional, cell-based; conditions: MDA-MB-231, 48 h
[14] = system: HepG2; assay: Antiproliferative activity against human HepG2 cells assessed as cell growth inhibition incubated for 48 hrs by MTT assay; format: functional, cell-based; conditions: HepG2, 48 h
[15] = system: A-375; assay: Antiproliferative activity against human A-375 cells assessed as cell viability incubated for 48 hrs by MTT assay; format: functional, cell-based
[16] = system: B16-F10; assay: Induction of cell cycle arrest in mouse B16-F10 cells assessed as accumulation of cells at G0/G1 phase at 8 uM incubated for 48 hrs by PI staining based flow cytometry analysis (reference value: 70.09%); format: functional
[17] = system: B16-F10; assay: Induction of cell cycle arrest in mouse B16-F10 cells assessed as accumulation of cells at S phase at 1 uM incubated for 48 hrs by PI staining based flow cytometry analysis (reference value: 24.04%); format: functional
[18] = system: B16-F10; assay: Antitumor activity against mouse B16-F10 cells implanted in C57BL/6J mouse assessed as tumor growth inhibition at 40 mg/kg, ip administered once daily for 9 days; format: functional; conditions: B16-F10, 216 h, time 9 day, read-out: TGI
[19] = system: B16-F10; assay: Induction of apoptosis in mouse B16-F10 cells assessed as early apoptotic cells at 10 uM incubated for 48 hrs by Annexin V-FITC/PI staining based flow cytometry analysis (reference value: 0.45 %); format: functional
[20] = system: B16-F10; assay: Antitumor activity against mouse B16-F10 cells implanted in C57BL/6J mouse assessed as tumor growth inhibition at 20 mg/kg, ip administered once daily for 9 days; format: functional; conditions: B16-F10, 216 h, time 9 day, read-out: TGI
[21] = system: B16-F10; assay: Induction of apoptosis in mouse B16-F10 cells assessed as necrotic cells at 8 uM incubated for 48 hrs by Annexin V-FITC/PI staining based flow cytometry analysis (reference value: 2.24%); format: functional
[22] = system: B16-F10; assay: Induction of apoptosis in mouse B16-F10 cells assessed as viable cells at 1 uM incubated for 48 hrs by Annexin V-FITC/PI staining based flow cytometry analysis (reference value: 92.3%); format: functional; conditions: read-out: Activity
[23] = system: HCT-116; assay: Antiproliferative activity against human HCT-116 cells assessed as cell growth inhibition incubated for 48 hrs by MTT assay; format: functional, cell-based; conditions: HCT-116, 48 h
[24] = system: B16-F10; assay: Induction of apoptosis in mouse B16-F10 cells assessed as necrotic cells at 2 uM incubated for 48 hrs by Annexin V-FITC/PI staining based flow cytometry analysis (reference value: 2.24%); format: functional
[25] = system: B16-F10; assay: Induction of cell cycle arrest in mouse B16-F10 cells assessed as accumulation of cells at G0/G1 phase at 1 uM incubated for 48 hrs by PI staining based flow cytometry analysis (reference value: 70.09%); format: functional
[26] = system: B16-F10; assay: Induction of apoptosis in mouse B16-F10 cells assessed as late apoptotic cells at 1 uM incubated for 48 hrs by Annexin V-FITC/PI staining based flow cytometry analysis (reference value: 5.02 %); format: functional
[27] = system: B16-F10; assay: Induction of apoptosis in mouse B16-F10 cells assessed as necrotic cells at 1 uM incubated for 48 hrs by Annexin V-FITC/PI staining based flow cytometry analysis (reference value: 2.24%); format: functional
[28] = system: B16-F10; assay: Induction of apoptosis in mouse B16-F10 cells assessed as viable cells at 10 uM incubated for 48 hrs by Annexin V-FITC/PI staining based flow cytometry analysis (reference value: 92.3%); format: functional; conditions: read-out: Activity

Sequence of Histone deacetylase 3 (O15379 whole entry): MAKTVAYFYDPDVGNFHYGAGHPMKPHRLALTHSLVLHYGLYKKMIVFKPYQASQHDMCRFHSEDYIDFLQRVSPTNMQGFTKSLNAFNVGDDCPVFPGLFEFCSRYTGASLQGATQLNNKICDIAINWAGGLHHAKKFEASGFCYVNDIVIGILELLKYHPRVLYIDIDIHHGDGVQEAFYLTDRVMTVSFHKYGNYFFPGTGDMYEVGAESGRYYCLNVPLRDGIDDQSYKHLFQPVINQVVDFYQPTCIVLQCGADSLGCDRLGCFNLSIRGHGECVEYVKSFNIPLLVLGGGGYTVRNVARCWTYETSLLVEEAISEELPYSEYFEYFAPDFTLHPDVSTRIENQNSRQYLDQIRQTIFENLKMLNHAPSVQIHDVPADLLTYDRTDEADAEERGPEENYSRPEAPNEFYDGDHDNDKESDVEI

In the case of `CCCNNC(=O)CCCNCc1ccc(-c2cccc(-c3ccccc3)c2C)nc1OC`, the Activity [1] is reported as 16.4%, the Activity [2] is reported as 9.81% and the IC50 [3] is reported as 0.107 µM. For the same compound, the inhibition [4] was “Active”, the inhibition [5] was “Dose-dependent-effect” and the inhibition [6] was 55.4%. The Activity [7] was 5.08%, the Activity [8] was 1.75% and the Activity [9] was 3.65%. It also gave an Activity [10] of 1.04%, an IC50 [11] of 2.33 µM and an Activity [12] of 4.08%. The IC50 [13] was 3.01 µM, the IC50 [14] was 4 µM and the Activity [15] was “Active”. For the same compound, the Activity [16] was 96.8%, the Activity [17] was 21.79% and the inhibition in vivo at 40 mg/kg [18] was 66.5%. It also gave an Activity [19] of 52.9%, an inhibition in vivo at 20 mg/kg [20] of 48.9% and an Activity [21] of 2.21%. The viability at 1 µM [22] was 84.8%, the IC50 [23] was 2.86 µM and the Activity [24] was 4.4%. For the same compound, the Activity [25] was 73.46%, the Activity [26] was 9.24% and the Activity [27] was 2.63%. For the same compound, the viability at 10 µM [28] was 31.3%.
